Assay results as given in PubChem BioAssay (NCI).
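In this assay, cells in 96-well plates receive the compound at five concentrations for 48 hours. Endpoints are linearly interpolated between the surrounding concentrations. GI50 marks 50% less growth. TGI is the concentration that stops growth completely.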

Legend:
Assay in all cases: NCI anticancer screen, dose series, 48 h
786-0 renal = tested on: 786-0 renal
A498 renal = tested on: A498 renal
A549 NSCLC = tested on: A549 NSCLC
ACHN renal = tested on: ACHN renal
BT-549 breast = tested on: BT-549 breast
CAKI-1 renal = tested on: CAKI-1 renal
CCRF-CEM leukemia = tested on: CCRF-CEM leukemia
COLO 205 colon = tested on: COLO 205 colon
DU-145 prostate = tested on: DU-145 prostate
EKVX NSCLC = tested on: EKVX NSCLC
HCC-2998 colon = tested on: HCC-2998 colon
HCT-116 colon = tested on: HCT-116 colon
HCT-15 colon = tested on: HCT-15 colon
HL-60(TB) leukemia = tested on: HL-60(TB) leukemia
HOP-62 NSCLC = tested on: HOP-62 NSCLC
HOP-92 NSCLC = tested on: HOP-92 NSCLC
HS 578T breast = tested on: HS 578T breast
HT29 colon = tested on: HT29 colon
IGROV1 ovarian = tested on: IGROV1 ovarian
K-562 leukemia = tested on: K-562 leukemia
KM12 colon = tested on: KM12 colon
LOX IMVI melanoma = tested on: LOX IMVI melanoma
M14 melanoma = tested on: M14 melanoma
MALME-3M melanoma = tested on: MALME-3M melanoma
MCF7 breast = tested on: MCF7 breast
MDA-MB-231 breast = tested on: MDA-MB-231 breast
MDA-MB-435 = tested on: MDA-MB-435
MOLT-4 leukemia = tested on: MOLT-4 leukemia
NCI-H226 lung = tested on: NCI-H226 lung
NCI-H23 lung = tested on: NCI-H23 lung
NCI-H460 lung = tested on: NCI-H460 lung
NCI-H522 lung = tested on: NCI-H522 lung
NCI/ADR-RES ovarian = tested on: NCI/ADR-RES ovarian
OVCAR-3 ovarian = tested on: OVCAR-3 ovarian
OVCAR-4 ovarian = tested on: OVCAR-4 ovarian
OVCAR-5 ovarian = tested on: OVCAR-5 ovarian
OVCAR-8 ovarian = tested on: OVCAR-8 ovarian
PC-3 prostate = tested on: PC-3 prostate
RPMI-8226 leukemia = tested on: RPMI-8226 leukemia
RXF 393 renal = tested on: RXF 393 renal
SF-268 CNS = tested on: SF-268 CNS
SF-295 CNS = tested on: SF-295 CNS
SF-539 CNS = tested on: SF-539 CNS
SK-MEL-2 melanoma = tested on: SK-MEL-2 melanoma
SK-MEL-28 melanoma = tested on: SK-MEL-28 melanoma
SK-MEL-5 melanoma = tested on: SK-MEL-5 melanoma
SK-OV-3 ovarian = tested on: SK-OV-3 ovarian
SN12C renal = tested on: SN12C renal
SNB-19 CNS = tested on: SNB-19 CNS
SNB-75 CNS = tested on: SNB-75 CNS
SR leukemia = tested on: SR leukemia
SW-620 colon = tested on: SW-620 colon
T-47D breast = tested on: T-47D breast
TK-10 renal = tested on: TK-10 renal
U251 CNS = tested on: U251 CNS
UACC-257 melanoma = tested on: UACC-257 melanoma
UACC-62 melanoma = tested on: UACC-62 melanoma
UO-31 renal = tested on: UO-31 renal
MDA-N = tested on: MDA-N

COc1cc2c3c(n(CCCN)c(=O)c2cc1OC)-c1ccc(N)cc1C3=O
GI50 (786-0 renal): 1.91 µM
TGI (786-0 renal): 5.04 µM
GI50 (A498 renal): 1.93 µM
TGI (A498 renal): 9.78 µM
GI50 (A549 NSCLC): 12.9 µM
TGI (A549 NSCLC): 44.3 µM
GI50 (ACHN renal): 5.9 µM
TGI (ACHN renal): 37.8 µM
GI50 (BT-549 breast): 1.97 µM
TGI (BT-549 breast): 8.85 µM
GI50 (CAKI-1 renal): 30.9 µM
TGI (CAKI-1 renal): > 82.3 µM
GI50 (CCRF-CEM leukemia): 0.389 µM
TGI (CCRF-CEM leukemia): 7.28 µM
GI50 (COLO 205 colon): 0.554 µM
TGI (COLO 205 colon): 10.2 µM
GI50 (DU-145 prostate): 1.64 µM
TGI (DU-145 prostate): 9.03 µM
GI50 (EKVX NSCLC): 9.15 µM
TGI (EKVX NSCLC): > 30.9 µM
GI50 (HCC-2998 colon): 0.806 µM
TGI (HCC-2998 colon): 6 µM
GI50 (HCT-116 colon): 0.339 µM
TGI (HCT-116 colon): 1.35 µM
GI50 (HCT-15 colon): 24.4 µM
TGI (HCT-15 colon): > 100 µM
GI50 (HL-60(TB) leukemia): 0.461 µM
TGI (HL-60(TB) leukemia): 4.91 µM
GI50 (HOP-62 NSCLC): 1.55 µM
TGI (HOP-62 NSCLC): 4.92 µM
GI50 (HOP-92 NSCLC): 2.3 µM
TGI (HOP-92 NSCLC): 15.3 µM
GI50 (HS 578T breast): 2.02 µM
TGI (HS 578T breast): 12.5 µM
GI50 (HT29 colon): 2.41 µM
TGI (HT29 colon): 18.2 µM
GI50 (IGROV1 ovarian): 1.43 µM
TGI (IGROV1 ovarian): > 50.4 µM
GI50 (K-562 leukemia): 0.155 µM
TGI (K-562 leukemia): 12 µM
GI50 (KM12 colon): 9.26 µM
TGI (KM12 colon): > 74.2 µM
GI50 (LOX IMVI melanoma): 0.333 µM
TGI (LOX IMVI melanoma): 2.16 µM
GI50 (M14 melanoma): 2.21 µM
TGI (M14 melanoma): 13.7 µM
GI50 (MALME-3M melanoma): 5.85 µM
TGI (MALME-3M melanoma): 26.4 µM
GI50 (MCF7 breast): 1.66 µM
TGI (MCF7 breast): > 38.2 µM
GI50 (MDA-MB-231 breast): 3.09 µM
TGI (MDA-MB-231 breast): 21.2 µM
GI50 (MDA-MB-435): 3.06 µM
TGI (MDA-MB-435): 17 µM
GI50 (MOLT-4 leukemia): 0.527 µM
TGI (MOLT-4 leukemia): 4.7 µM
GI50 (NCI-H226 lung): 2.85 µM
TGI (NCI-H226 lung): 14.5 µM
GI50 (NCI-H23 lung): 1.62 µM
TGI (NCI-H23 lung): 9.75 µM
GI50 (NCI-H460 lung): 4.52 µM
TGI (NCI-H460 lung): 16.8 µM
GI50 (NCI-H522 lung): 0.78 µM
TGI (NCI-H522 lung): 16.7 µM
GI50 (NCI/ADR-RES ovarian): > 100 µM
TGI (NCI/ADR-RES ovarian): > 100 µM
GI50 (OVCAR-3 ovarian): 2.12 µM
TGI (OVCAR-3 ovarian): > 29.6 µM
GI50 (OVCAR-4 ovarian): 1.57 µM
TGI (OVCAR-4 ovarian): 11.6 µM
GI50 (OVCAR-5 ovarian): 7.87 µM
TGI (OVCAR-5 ovarian): > 47.9 µM
GI50 (OVCAR-8 ovarian): 2.86 µM
TGI (OVCAR-8 ovarian): 59.1 µM
GI50 (PC-3 prostate): 1.19 µM
TGI (PC-3 prostate): 22.1 µM
GI50 (RPMI-8226 leukemia): 19.5 µM
TGI (RPMI-8226 leukemia): 49.8 µM
GI50 (RXF 393 renal): 1.07 µM
TGI (RXF 393 renal): 7.22 µM
GI50 (SF-268 CNS): 1.64 µM
TGI (SF-268 CNS): 31.6 µM
GI50 (SF-295 CNS): 3.75 µM
TGI (SF-295 CNS): 37.3 µM
GI50 (SF-539 CNS): 0.302 µM
TGI (SF-539 CNS): 1.61 µM
GI50 (SK-MEL-2 melanoma): 7.77 µM
TGI (SK-MEL-2 melanoma): 29.8 µM
GI50 (SK-MEL-28 melanoma): 2.16 µM
TGI (SK-MEL-28 melanoma): 14.7 µM
GI50 (SK-MEL-5 melanoma): 0.902 µM
TGI (SK-MEL-5 melanoma): 2.88 µM
GI50 (SK-OV-3 ovarian): 2.52 µM
TGI (SK-OV-3 ovarian): 17.9 µM
GI50 (SN12C renal): 2.98 µM
TGI (SN12C renal): 27.3 µM
GI50 (SNB-19 CNS): 1.27 µM
TGI (SNB-19 CNS): 16.3 µM
GI50 (SNB-75 CNS): 1.75 µM
TGI (SNB-75 CNS): 12.3 µM
GI50 (SR leukemia): 0.152 µM
TGI (SR leukemia): 1.45 µM
GI50 (SW-620 colon): 0.607 µM
TGI (SW-620 colon): 11.7 µM
GI50 (T-47D breast): 0.842 µM
TGI (T-47D breast): 7.37 µM
GI50 (TK-10 renal): 17.9 µM
TGI (TK-10 renal): 80.6 µM
GI50 (U251 CNS): 0.575 µM
TGI (U251 CNS): 6.84 µM
GI50 (UACC-257 melanoma): 13.7 µM
TGI (UACC-257 melanoma): 50.3 µM
GI50 (UACC-62 melanoma): 1.08 µM
TGI (UACC-62 melanoma): 10.7 µM
GI50 (UO-31 renal): 37.2 µM
TGI (UO-31 renal): > 100 µM

CCN(CC)/[N+]([O-])=N/OS(=O)(=O)N(C)C
TGI (786-0 renal): > 100 µM
TGI (A498 renal): > 100 µM
TGI (A549 NSCLC): > 100 µM
TGI (ACHN renal): > 100 µM
TGI (CAKI-1 renal): > 100 µM
TGI (CCRF-CEM leukemia): > 100 µM
TGI (COLO 205 colon): > 100 µM
TGI (DU-145 prostate): > 100 µM
TGI (EKVX NSCLC): > 100 µM
TGI (HCC-2998 colon): > 100 µM
TGI (HCT-116 colon): > 100 µM
TGI (HCT-15 colon): > 100 µM
TGI (HL-60(TB) leukemia): > 100 µM
TGI (HOP-62 NSCLC): > 100 µM
TGI (HOP-92 NSCLC): > 100 µM
TGI (HS 578T breast): > 100 µM
TGI (HT29 colon): > 100 µM
TGI (IGROV1 ovarian): > 100 µM
TGI (K-562 leukemia): > 100 µM
TGI (KM12 colon): > 100 µM
TGI (LOX IMVI melanoma): > 100 µM
TGI (M14 melanoma): > 100 µM
TGI (MALME-3M melanoma): > 100 µM
TGI (MCF7 breast): > 100 µM
TGI (MDA-MB-231 breast): > 100 µM
TGI (MDA-MB-435): > 100 µM
TGI (MDA-N): > 100 µM
TGI (MOLT-4 leukemia): > 100 µM
TGI (NCI-H226 lung): > 100 µM
TGI (NCI-H23 lung): > 100 µM
TGI (NCI-H460 lung): > 100 µM
TGI (NCI-H522 lung): > 100 µM
TGI (NCI/ADR-RES ovarian): > 100 µM
TGI (OVCAR-3 ovarian): > 100 µM
TGI (OVCAR-4 ovarian): > 100 µM
TGI (OVCAR-5 ovarian): > 100 µM
TGI (OVCAR-8 ovarian): > 100 µM
TGI (RPMI-8226 leukemia): > 100 µM
TGI (RXF 393 renal): > 100 µM
TGI (SF-268 CNS): > 100 µM
TGI (SF-295 CNS): > 100 µM
TGI (SF-539 CNS): > 100 µM
TGI (SK-MEL-28 melanoma): > 100 µM
TGI (SK-MEL-5 melanoma): > 100 µM
TGI (SK-OV-3 ovarian): > 100 µM
TGI (SN12C renal): > 100 µM
TGI (SNB-19 CNS): > 100 µM
TGI (SNB-75 CNS): > 100 µM
TGI (SR leukemia): > 100 µM
TGI (SW-620 colon): > 100 µM
TGI (T-47D breast): > 100 µM
TGI (TK-10 renal): > 100 µM
TGI (U251 CNS): > 100 µM
TGI (UACC-257 melanoma): > 100 µM
TGI (UACC-62 melanoma): > 100 µM
